Targets include AURKA (Homo sapiens, UniProt O14965); CLK1 (Homo sapiens, UniProt P49759); FLT3(D835V) (Homo sapiens, UniProt P36888, D835V); GRK3 (Homo sapiens, UniProt P35626); IRAK3 (Homo sapiens, UniProt Q9Y616); KIT(V559D,T670I) (Homo sapiens, UniProt P10721, T670I/V559D); MAP3K2 (Homo sapiens, UniProt Q9Y2U5); MAP4K5 (Homo sapiens, UniProt Q9Y4K4); MYO3A (Homo sapiens, UniProt Q8NEV4); PKMYT1 (Homo sapiens, UniProt Q99640); PRKD1 (Homo sapiens, UniProt Q15139); PRKG1 (Homo sapiens, UniProt Q13976); WNK4 (Homo sapiens, UniProt Q96J92).

What all share (experiment): biochemical
What all share (parameters): DiscoverX kinase panel, active-site competition binding (KINOMEscan type), percent of control at one concentration
Settings in all cases: competition binding, percent of control

In another assay the target is T1, CDK4-cyclinD1 (Homo sapiens, UniProt P11802).
T1 construct: cyclinD1

The target in a further assay is T2, DLK (Homo sapiens, UniProt Q12852).
T2 construct: gene MAP3K12

A further assay deals with T3, MEK2 (Homo sapiens, UniProt P36507).
T3 construct: gene MAP2K2
T3 sequence (P36507 whole entry): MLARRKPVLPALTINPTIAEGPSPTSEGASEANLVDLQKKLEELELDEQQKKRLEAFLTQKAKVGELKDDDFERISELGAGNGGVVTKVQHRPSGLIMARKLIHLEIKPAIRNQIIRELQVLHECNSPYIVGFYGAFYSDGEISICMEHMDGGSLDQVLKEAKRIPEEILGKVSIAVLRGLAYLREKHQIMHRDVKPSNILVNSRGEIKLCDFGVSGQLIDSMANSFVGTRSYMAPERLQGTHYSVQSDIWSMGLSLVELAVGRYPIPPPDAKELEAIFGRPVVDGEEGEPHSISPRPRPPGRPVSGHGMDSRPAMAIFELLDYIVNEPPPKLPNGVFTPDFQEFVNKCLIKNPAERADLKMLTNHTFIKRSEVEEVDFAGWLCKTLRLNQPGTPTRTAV

A further assay addresses T4, PFPK5(P.falciparum) (Plasmodium falciparum, UniProt P61075).
T4 construct: gene MAL13P1.279

The target of assay [1] is T5, RPS6KA5(Kin.Dom.1-N-terminal) (Homo sapiens, UniProt O75582).
T5 construct: Kin.Dom.1-N-terminal
T5 sequence (O75582 whole entry): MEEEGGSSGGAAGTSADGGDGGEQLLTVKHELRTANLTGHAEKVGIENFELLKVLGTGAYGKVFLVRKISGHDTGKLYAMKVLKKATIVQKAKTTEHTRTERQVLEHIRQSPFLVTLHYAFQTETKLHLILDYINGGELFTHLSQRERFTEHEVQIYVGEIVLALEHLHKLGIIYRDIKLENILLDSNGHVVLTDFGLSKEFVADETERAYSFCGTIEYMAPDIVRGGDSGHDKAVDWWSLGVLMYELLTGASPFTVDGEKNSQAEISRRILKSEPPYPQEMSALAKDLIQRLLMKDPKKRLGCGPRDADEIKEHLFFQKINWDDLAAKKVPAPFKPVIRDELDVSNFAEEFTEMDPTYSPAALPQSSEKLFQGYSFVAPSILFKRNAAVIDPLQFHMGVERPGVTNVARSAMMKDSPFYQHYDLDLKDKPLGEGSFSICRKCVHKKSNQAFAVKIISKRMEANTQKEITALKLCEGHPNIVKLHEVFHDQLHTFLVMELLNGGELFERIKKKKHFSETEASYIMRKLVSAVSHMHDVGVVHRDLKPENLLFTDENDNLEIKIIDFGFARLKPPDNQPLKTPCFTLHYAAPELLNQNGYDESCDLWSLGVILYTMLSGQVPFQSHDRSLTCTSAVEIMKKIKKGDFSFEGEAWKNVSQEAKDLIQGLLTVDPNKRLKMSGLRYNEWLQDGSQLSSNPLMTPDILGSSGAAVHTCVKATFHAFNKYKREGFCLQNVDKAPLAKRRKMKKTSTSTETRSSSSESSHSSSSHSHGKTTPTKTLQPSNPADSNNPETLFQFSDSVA

The next assay concerns the target T6, S6K1 (Homo sapiens, UniProt P23443).
T6 construct: gene RPS6KB1

The target in a further assay is T7, VEGFR2 (Homo sapiens, UniProt P35968).
T7 construct: gene KDR

A further assay concerns the target T8, YSK4 (Homo sapiens, UniProt Q56UN5).
T8 construct: gene MAP3K19

Sequence of GRK3 (P35626 whole entry): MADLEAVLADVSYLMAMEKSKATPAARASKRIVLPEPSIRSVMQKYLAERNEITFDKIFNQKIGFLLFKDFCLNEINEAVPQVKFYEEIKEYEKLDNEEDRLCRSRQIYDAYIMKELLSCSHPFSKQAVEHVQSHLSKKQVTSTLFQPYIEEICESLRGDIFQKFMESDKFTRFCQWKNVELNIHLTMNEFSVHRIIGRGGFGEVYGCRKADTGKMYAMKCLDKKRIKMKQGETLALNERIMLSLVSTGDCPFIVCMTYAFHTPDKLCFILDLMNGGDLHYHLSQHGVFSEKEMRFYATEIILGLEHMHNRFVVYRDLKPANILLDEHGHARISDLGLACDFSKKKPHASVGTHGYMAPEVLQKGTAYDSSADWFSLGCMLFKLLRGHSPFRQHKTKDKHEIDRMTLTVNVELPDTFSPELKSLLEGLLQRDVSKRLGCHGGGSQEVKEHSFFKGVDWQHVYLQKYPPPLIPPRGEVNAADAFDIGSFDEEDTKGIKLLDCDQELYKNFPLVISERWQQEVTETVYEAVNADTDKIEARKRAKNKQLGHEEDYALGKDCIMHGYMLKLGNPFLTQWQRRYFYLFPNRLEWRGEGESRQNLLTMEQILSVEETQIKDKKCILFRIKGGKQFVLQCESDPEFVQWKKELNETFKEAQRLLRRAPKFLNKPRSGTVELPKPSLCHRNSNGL
T8 sequence (Q56UN5 whole entry): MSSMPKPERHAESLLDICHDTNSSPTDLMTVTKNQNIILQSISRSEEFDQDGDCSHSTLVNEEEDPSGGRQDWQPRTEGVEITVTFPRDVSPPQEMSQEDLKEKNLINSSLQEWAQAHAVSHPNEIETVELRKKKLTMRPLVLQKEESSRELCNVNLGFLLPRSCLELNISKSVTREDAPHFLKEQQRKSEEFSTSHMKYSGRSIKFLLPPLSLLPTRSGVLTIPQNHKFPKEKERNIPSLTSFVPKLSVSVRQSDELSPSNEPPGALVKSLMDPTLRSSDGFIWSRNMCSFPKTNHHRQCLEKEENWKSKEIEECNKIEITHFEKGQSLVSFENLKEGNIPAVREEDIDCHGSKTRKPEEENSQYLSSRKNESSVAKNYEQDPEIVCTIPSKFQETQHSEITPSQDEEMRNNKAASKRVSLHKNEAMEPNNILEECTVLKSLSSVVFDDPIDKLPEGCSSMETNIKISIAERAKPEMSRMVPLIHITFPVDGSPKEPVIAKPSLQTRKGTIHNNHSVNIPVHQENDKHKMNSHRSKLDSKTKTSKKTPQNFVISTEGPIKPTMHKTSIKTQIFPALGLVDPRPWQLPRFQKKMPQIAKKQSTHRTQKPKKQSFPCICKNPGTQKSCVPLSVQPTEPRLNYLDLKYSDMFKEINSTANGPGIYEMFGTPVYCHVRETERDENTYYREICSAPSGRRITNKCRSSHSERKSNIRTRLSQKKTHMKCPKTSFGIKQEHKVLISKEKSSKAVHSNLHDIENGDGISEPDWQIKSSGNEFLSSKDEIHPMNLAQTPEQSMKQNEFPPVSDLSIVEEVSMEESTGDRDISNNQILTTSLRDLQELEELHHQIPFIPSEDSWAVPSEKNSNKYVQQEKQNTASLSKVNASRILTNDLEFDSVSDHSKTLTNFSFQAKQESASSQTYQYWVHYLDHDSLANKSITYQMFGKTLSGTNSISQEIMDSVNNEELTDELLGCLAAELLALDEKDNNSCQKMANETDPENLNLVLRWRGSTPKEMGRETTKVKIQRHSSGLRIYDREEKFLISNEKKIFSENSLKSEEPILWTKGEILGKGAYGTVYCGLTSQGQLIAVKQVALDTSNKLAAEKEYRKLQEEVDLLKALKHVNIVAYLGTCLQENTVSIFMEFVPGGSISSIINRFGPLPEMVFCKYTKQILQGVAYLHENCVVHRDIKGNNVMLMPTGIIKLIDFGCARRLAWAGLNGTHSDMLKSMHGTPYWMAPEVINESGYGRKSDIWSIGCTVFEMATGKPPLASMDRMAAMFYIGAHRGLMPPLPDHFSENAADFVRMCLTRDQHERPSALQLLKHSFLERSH
Sequence of MAP3K2 (Q9Y2U5 whole entry): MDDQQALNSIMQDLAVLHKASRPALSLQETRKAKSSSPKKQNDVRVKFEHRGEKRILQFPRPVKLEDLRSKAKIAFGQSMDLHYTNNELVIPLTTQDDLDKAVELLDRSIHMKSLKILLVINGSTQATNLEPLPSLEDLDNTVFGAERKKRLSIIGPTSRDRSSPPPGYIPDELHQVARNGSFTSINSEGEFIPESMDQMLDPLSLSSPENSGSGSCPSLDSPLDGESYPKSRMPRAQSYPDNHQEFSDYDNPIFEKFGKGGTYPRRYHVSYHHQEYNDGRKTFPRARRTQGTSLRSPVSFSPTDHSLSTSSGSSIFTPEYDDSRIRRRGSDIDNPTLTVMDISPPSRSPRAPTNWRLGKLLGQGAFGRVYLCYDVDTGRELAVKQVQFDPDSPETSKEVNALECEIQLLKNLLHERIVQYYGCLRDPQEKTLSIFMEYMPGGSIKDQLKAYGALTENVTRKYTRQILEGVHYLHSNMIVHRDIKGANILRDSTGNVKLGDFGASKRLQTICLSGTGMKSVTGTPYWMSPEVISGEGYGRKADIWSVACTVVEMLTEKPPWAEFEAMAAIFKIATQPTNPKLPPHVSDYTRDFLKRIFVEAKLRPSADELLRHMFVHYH
Sequence of WNK4 (Q96J92 whole entry): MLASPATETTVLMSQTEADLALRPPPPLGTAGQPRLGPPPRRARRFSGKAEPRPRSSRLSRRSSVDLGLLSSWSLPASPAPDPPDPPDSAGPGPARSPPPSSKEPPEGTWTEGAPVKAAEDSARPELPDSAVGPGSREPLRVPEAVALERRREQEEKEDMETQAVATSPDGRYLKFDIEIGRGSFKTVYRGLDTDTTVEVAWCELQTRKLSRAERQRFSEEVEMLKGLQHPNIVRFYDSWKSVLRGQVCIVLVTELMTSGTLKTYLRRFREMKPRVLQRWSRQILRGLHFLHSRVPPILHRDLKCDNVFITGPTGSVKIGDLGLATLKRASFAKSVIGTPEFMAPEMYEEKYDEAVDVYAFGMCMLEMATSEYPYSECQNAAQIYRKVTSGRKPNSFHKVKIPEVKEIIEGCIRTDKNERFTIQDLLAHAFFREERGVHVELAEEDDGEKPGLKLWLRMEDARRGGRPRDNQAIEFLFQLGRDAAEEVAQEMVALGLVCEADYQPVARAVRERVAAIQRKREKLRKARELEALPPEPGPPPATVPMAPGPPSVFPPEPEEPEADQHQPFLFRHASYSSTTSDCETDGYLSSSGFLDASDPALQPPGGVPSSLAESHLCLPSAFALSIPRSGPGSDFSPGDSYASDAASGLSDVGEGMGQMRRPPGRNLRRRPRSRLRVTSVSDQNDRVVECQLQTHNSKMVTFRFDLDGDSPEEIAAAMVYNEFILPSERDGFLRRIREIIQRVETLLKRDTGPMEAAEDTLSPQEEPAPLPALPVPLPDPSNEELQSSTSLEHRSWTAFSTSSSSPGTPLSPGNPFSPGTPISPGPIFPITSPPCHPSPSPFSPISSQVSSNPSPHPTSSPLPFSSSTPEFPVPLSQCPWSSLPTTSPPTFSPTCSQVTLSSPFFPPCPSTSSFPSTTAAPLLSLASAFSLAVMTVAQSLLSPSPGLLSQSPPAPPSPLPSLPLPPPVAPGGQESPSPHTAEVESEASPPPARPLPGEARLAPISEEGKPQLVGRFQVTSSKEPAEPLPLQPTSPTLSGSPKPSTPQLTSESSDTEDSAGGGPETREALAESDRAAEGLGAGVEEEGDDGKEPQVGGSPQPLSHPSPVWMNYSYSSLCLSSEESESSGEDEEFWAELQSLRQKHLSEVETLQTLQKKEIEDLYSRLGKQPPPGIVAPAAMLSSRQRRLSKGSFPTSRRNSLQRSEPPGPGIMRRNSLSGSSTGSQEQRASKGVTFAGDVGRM

`COc1cc2c(cn1)N(C)C(=O)[C@@H](NC(=O)c1nc3n(n1)[C@H](c1ccccc1)CC3)CC2` [GNE684, (S)-N-((S)-7-methoxy-1-methyl-2-oxo-2,3,4,5-tetrahydro-1H-pyrido[3,4-b]azepin-3-yl)-5-phenyl-6,7-dihydro-5H-pyrrolo[1,2-b][1,2,4]triazole-2-carboxamide]: the remaining binding at 10 µM was 96% on AURKA; 87% at CDK4-cyclinD1; 90% at CLK1; 100% at DLK; 88% at FLT3(D835V); 100% on GRK3. For the same compound, the remaining binding at 10 µM came to 100% on IRAK3; 100% on KIT(V559D,T670I); 76% at MAP3K2; 91% at MAP4K5; 80% on MEK2; 95% at MYO3A. Besides, the remaining binding at 10 µM at PFPK5(P.falciparum) was determined as 100%; on PKMYT1 it was 99%; on PRKD1 it was 100%; at PRKG1, 81%; in assay [1], 84%; on S6K1, 88%. For the same compound, the remaining binding at 10 µM is 93% at VEGFR2, 100% at WNK4 and 92% at YSK4.
